Results: patent US20230248847A1, “MULTIFUNCTIONAL NANOPARTICLES FOR THERAGNOSIS” (priority 2018, published 2023)

Experiments:
[1] = system: orthotopic xenograft tumours of MDA-MB-231 breast cancer cell line; assay: In vivo therapeutic efficacy, orthotopic MDA-MB-231 breast cancer xenograft; design: species or system NSG mice
Method: An orthotopic xenotransplantation of the triple-negative human MDA-MB-231 breast cancer cell line was performed in immunocompromised female NSG mice. The mice (5 per group) were divided into 3 groups and treated according to the protocol approved by the Institutional Animal Care and Use Committee (IACUC) of the University of Granada and the Regional Government of Andalusia according to the European Directive on the protection of animals used for scientific purposes (2010/63/EU) and Spanish law (Royal Decree 53/2013). […]

[2] = In vivo toxicity assays (survival, external signs, weight, motor activity); design: species or system NSG mice; conditions: for external side effects observed: intravenous every 3 days
Method: All the in vivo experiments were performed in NOD scid gamma mice (NSG, NOD.Cg-Prkdcscid II2rgtmlWjl/SzJ). The animal wellbeing and experimental methods were carried out according to institutional guidelines (Research Ethics Committee of University of Granada, Spain) and international guidelines (European Community Council Directive 86/609). All the animals (n=5 per group) were kept in a micro-ventilated cage system with a 12-h light/darkness cycle, and handled in a laminar flow cabinet to maintain the specific pathogen-free conditions. To establish orthotopic xenograft tumours, female mice six to eight weeks of age were used. The mice were anaesthetised by means of the inhalation of isoflurane and tumours were generated in the right breast by means of subcutaneous injections of 5×10^5 cells/mouse mixed with Corning® Matrigel® Matrix and with 26-gauge needles. The intravenous administration of PBS (control), free DOX, and NPs in the tail vein of the mice was performed every three days for a period of 43 days, as was the fluorescence evaluation by means of IVIS® (Perkin Elmer). Tumour growth was evaluated twice a week with a digital calibrator and tumour volume was calculated by means of the formula V=(length) 2×width×π/6. The weight of the mice was also measured every three days. The endpoint of the experiment was day 44. […] During that month, the fluorescence of the mice was analyzed in IVIS® once a week. Lastly, the mice were sacrificed by cervical dislocation and the tumours were extirpated, photographed, and analyzed by means of IVIS®.
In another assay, a series of experiments were carried out to control the in vivo toxicity of the treatment. […] The percentage of survival (FIG. 12) during the treatment period was 100% both for mice treated with NPs and for controls. However, treatment with DOX caused a high impact on survival. After 30 days of treatment, there was a drastic decrease in the percentage of survival (30%). This effect could be attributed to the inherent systemic toxicity of this anti-tumour drug and to the serious side effects of this conventional chemotherapy treatment.
Furthermore, in order to observe the toxic effect of the treatment at the central nervous system level, a standardised protocol for testing movement was carried out on day 30 in a cage with a camera prepared for this purpose. This camera analyzes the distance the mouse travels in 24 hours.

COc1cccc2c1C(=O)c1c(O)c3c(c(O)c1C2=O)C[C@@](O)(C(=O)CO)C[C@@H]3O[C@H]1C[C@H](N)[C@H](O)[C@H](C)O1 [doxorubicin]
histological analysis of xenograft tumour tissues (cellularity) ([1]; haematoxylin/eosin and DAPI staining after treatment, vs control group): cellularity decreased significantly
therapeutic effect on tumour growth / tumour volume ([1]; intravenous every 3 days for 43 days, NSG mice, n=5 per group, vs PBS): significant inhibition of tumour growth
time after which inhibition of tumour growth was significant ([1]; intravenous every 3 days, NSG mice): 3 weeks
external side effects observed ([2]; NSG mice, listed as DOX): high cutaneous toxicity caused in the tail
external side effects observed ([2]; NSG mice, listed as free DOX): weight loss, goose bumps, behaviour disorders, and damaged tail
percentage of survival ([2]; after 30 days of treatment, NSG mice): 30%
weight of mice during treatment ([2]; compared with untreated control mice or mice treated with theranostic NPs): significant weight reduction
motor activity (distance travelled in 24 hours) ([2]; day 30, cage with camera): significant decrease in mouse mobility
